Measured values as given in patent publication US8426405B2, “Thiazopyrimidinones and uses thereof” (priority 2008, dated 2013).

Legend:
[1] = target: T1, HIV integrase wild type (Human immunodeficiency virus type 1 group M subtype B, UniProt P04585); test: Strand transfer assay (enzyme assay), WT; type: biochemical, HIV-1
T1 construct: The integrase coding region was then subject to PCR and cloned into a bacterial expression vector; made in house
Source text: (§1) HIV integrase was mutated within a shuttle vector (pGEM) containing the majority of the HIV-1 gag and pol sequence using site directed mutagenesis to generate integrase sequences that have been published as conferring resistance to published integrase inhibitors. These include, but are not limited to, mutations such as Q148K. The integrase coding region was then subject to PCR and cloned into a bacterial expression vector. The specific introduction of desired mutation(s) was confirmed by sequence analysis. Proteins were expressed, purified and used in strand transfer assays.
(§2) A strand transfer assay procedure similar to that published (Ovenden et al. Phytochemistry. 2004 December; 65(24):3255-9.) is used. Briefly, 400 ng of the enzyme, wild type or drug resistant mutant, is mixed with the compound to be tested and incubated with 30 nM substrate DNA. The substrate DNA is designed to mimic HIV DNA termini that has undergone 3′end processing, and consists of the annealed U5 LTR sequence oligonucleotides tagged with Digoxigenin (DIG; 5′-[…]-DIG-3′) or biotin (5′-Bio-[…]-3′) so that each substrate has either a DIG or Bio tag on opposite strands. Reactions are carried out for 1 hr at 37° C. Products generated as a result of strand transfer activity are bound to streptavidin plates and detected using anti-DIG-alkaline phosphatase conjugate and p-nitro phenyl phosphate substrate.

[2] = system: HIV variant T661 S153Y in integrase; test: Phenosense (PhenoScreen) assay, T661 S153Y; type: cell-based
Source text: (§3) Monogram Bioscience' PhenoScreen assay allows the evaluation of integrase inhibitors for activity against a variety of HIV variants. The assay uses virus generated from 2 DNA constructs; one containing the HIV LTR, gag and pol regions, as well as a luciferase reporter gene in place of the viral envelope genes, and a second DNA construct containing the amphotrophic murine leukemia virus (A-MLV) envelope gene required to pseudotype virions and render them capable of entry into a target cell. Viruses generated using these constructs by transfection into a producer cell line such as 293T are capable of one-round of infection only. Successful integration events are directly proportional to the levels of luciferase expression 48 h after infection.
(§4) The viral variants chosen by Avexa Ltd to screen their in-house integration inhibitors against consist of mutations within the viral integrase enzyme known to confer resistance to a number of known integration inhibitors published in the literature. In particular, the viral variants containing the Q148H/G140S double mutation in integrase, and the N155H/E92Q double mutation in integrase, represent two of the more common viruses identified to arise in patients that are failing treatment with Isentress (Raltegravir, MK-0518).

[3] = system: HIV variant Q148H/G140S double mutation in integrase; test: Phenosense (PhenoScreen) assay, G140S Q148H; type: cell-based
Source text: as §3, §4

[4] = system: HIV variant N155H/E92Q double mutation in integrase; test: Phenosense (PhenoScreen) assay, E92Q N155H; type: cell-based
Source text: as §3, §4

[5] = system: HIV WT; test: Phenosense (PhenoScreen) assay, WT; type: cell-based; conditions: wild type HIV, luciferase 48 h after infection
Source text: as §3, §4

[6] = system: HIV variant Y143R in integrase; test: Phenosense (PhenoScreen) assay, Y143R; type: cell-based
Source text: as §3, §4

[7] = system: HIV variant T125K F121Y in integrase; test: Phenosense (PhenoScreen) assay, T125K F121Y; type: cell-based
Source text: as §3, §4

[8] = target: T2, HIV integrase E92Q/N155H (Human immunodeficiency virus type 1 group M subtype B, UniProt P04585, E1239Q/N1302H); test: Strand transfer assay (enzyme assay), E92Q/N155H; type: biochemical, HIV-1
T2 construct: The integrase coding region was then subject to PCR and cloned into a bacterial expression vector; made in house
Source text: as §1, §2

[9] = target: T3, HIV integrase G140S/Q148H (Human immunodeficiency virus type 1 group M subtype B, UniProt P04585, G1287S/Q1295H); test: Strand transfer assay (enzyme assay), G140S/Q148H; type: biochemical, HIV-1
T3 construct: The integrase coding region was then subject to PCR and cloned into a bacterial expression vector; made in house
Source text: as §1, §2

Compound	Enzyme WT [1]	Phenosense assay T661 S153Y [2]	Phenosense assay G140S Q148H [3]	Phenosense assay E92Q N155H [4]	Phenosense assay WT [5]	Phenosense assay Y143R [6]	Phenosense assay T125K F121Y [7]	Enzyme E92Q/N155H [8]	Enzyme G140S/Q148H [9]
CN1CCN(Cc2cn3c(=O)c(O)c(C(=O)NCc4ccc(Cl)c(Cl)c4)nc3s2)CC1	+++ (+++ indicates value between 0.001 μM and 1 μM)	++ (++ indicates value between 1 μM and 10 μM)	+ (+indicates value greater than 10 μM)	+ (+indicates value greater than 10 μM)	+++ (+++ indicates value between 0.001 μM and 1 μM)	+++ (+++ indicates value between 0.001 μM and 1 μM)	+ (+indicates value greater than 10 μM)		
O=C(NCc1ccc(Cl)c(Cl)c1)c1nc2sc(CN3CCOCC3)cn2c(=O)c1O	+++ (+++ indicates value between 0.001 μM and 1 μM)	+ (+indicates value greater than 10 μM)	+ (+indicates value greater than 10 μM)	+ (+indicates value greater than 10 μM)	+++ (+++ indicates value between 0.001 μM and 1 μM)	+++ (+++ indicates value between 0.001 μM and 1 μM)	+ (+indicates value greater than 10 μM)		
Cc1cn2c(=O)c(O)c(-c3ncc(Cc4ccc(F)cc4)s3)nc2s1								+++ (+++ indicates value between 0.001 μM and 1 μM)	
Cc1cn2c(=O)c(O)c(-c3ncc(Cc4ccc(F)c(Cl)c4)s3)nc2s1	+++ (+++ indicates value between 0.001 μM and 1 μM)							++ (++ indicates value between 1 μM and 10 μM)	++ (++ indicates value between 1 μM and 10 μM)
Cc1csc2nc(C(=O)NCc3ccc(Cl)c(Cl)c3)c(O)c(=O)n12	+++ (+++ indicates value between 0.001 μM and 1 μM)	+ (+indicates value greater than 10 μM)	+ (+indicates value greater than 10 μM)	+ (+indicates value greater than 10 μM)	+++ (+++ indicates value between 0.001 μM and 1 μM)	+++ (+++ indicates value between 0.001 μM and 1 μM)	+ (+indicates value greater than 10 μM)		
Cc1cn2c(=O)c(O)c(-c3ncc(Cc4ccc(Cl)cc4)s3)nc2s1	+++ (+++ indicates value between 0.001 μM and 1 μM)							++ (++ indicates value between 1 μM and 10 μM)	+ (+indicates value greater than 10 μM)
Cc1cn2c(=O)c(O)c(C(=O)NCc3ccc(Cl)c(Cl)c3)nc2s1	+++ (+++ indicates value between 0.001 μM and 1 μM)								
CC(C)c1cn2c(=O)c(O)c(C(=O)NCc3ccc(Cl)c(Cl)c3)nc2s1	+++ (+++ indicates value between 0.001 μM and 1 μM)	++ (++ indicates value between 1 μM and 10 μM)	+ (+indicates value greater than 10 μM)	+ (+indicates value greater than 10 μM)	+++ (+++ indicates value between 0.001 μM and 1 μM)	+++ (+++ indicates value between 0.001 μM and 1 μM)	+ (+indicates value greater than 10 μM)		
Cc1cn2c(=O)c(O)c(-c3ncc(Cc4ccc(Cl)c(Cl)c4)s3)nc2s1	+++ (+++ indicates value between 0.001 μM and 1 μM)							++ (++ indicates value between 1 μM and 10 μM)	+++ (+++ indicates value between 0.001 μM and 1 μM)
Cc1cn2c(=O)c(O)c(C(=O)NCc3ccc(F)cc3)nc2s1	++ (++ indicates value between 1 μM and 10 μM)								
O=C(NCc1ccc(F)cc1)c1nc2sc(CN3CCOCC3)cn2c(=O)c1O	++ (++ indicates value between 1 μM and 10 μM)	+ (+indicates value greater than 10 μM)	+ (+indicates value greater than 10 μM)	+ (+indicates value greater than 10 μM)	++ (++ indicates value between 1 μM and 10 μM)	++ (++ indicates value between 1 μM and 10 μM)	+ (+indicates value greater than 10 μM)		
